Data as given in ChEMBL document CHEMBL1201862, “PubChem BioAssay data set” (2004).
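Assay format: 96-well plates, 48-hour exposure. At the GI50, growth is halved.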 The source made the active and inactive calls. No stated cut-off is given here; in the data, active = GI50 up to about 1.1 µM and inactive = higher.

Experiments:
Assay in all cases: NCI tumour cell line growth inhibition, 48 h
A549 = system: A549
KM-20L2 = system: KM-20L2
SN12C = system: SN12C
EKVX = system: EKVX
SNB-78 = system: SNB-78
TK-10 = system: TK-10
M19-MEL = system: M19-MEL
SF-539 = system: SF-539
HT-29 = system: HT-29
SR = system: SR
MOLT-4 = system: MOLT-4
HOP-18 = system: HOP-18
SK-MEL-28 = system: SK-MEL-28
786-0 = system: 786-0
OVCAR-4 = system: OVCAR-4
Malme-3M = system: Malme-3M
DMS-114 = system: DMS-114
COLO 205 = system: COLO 205
SK-MEL-2 = system: SK-MEL-2
OVCAR-5 = system: OVCAR-5
DLD-1 = system: DLD-1
KM12 = system: KM12
OVCAR-8 = system: OVCAR-8
DMS-273 = system: DMS-273
M14 = system: M14
HL-60 = system: HL-60
SK-OV-3 = system: SK-OV-3
LXFL 529 = system: LXFL 529
NCI-H226 = system: NCI-H226
RXF 393 = system: RXF 393
ACHN = system: ACHN
NCI-H23 = system: NCI-H23
SW-620 = system: SW-620
HCT-116 = system: HCT-116
HCT-15 = system: HCT-15
UO-31 = system: UO-31
HOP-62 = system: HOP-62
UACC-62 = system: UACC-62
OVCAR-3 = system: OVCAR-3
IGROV-1 = system: IGROV-1
HCC 2998 = system: HCC 2998
SK-MEL-5 = system: SK-MEL-5
LOX IMVI = system: LOX IMVI
U-251 = system: U-251
NCI-H522 = system: NCI-H522
RXF 631 = system: RXF 631
NCI-H460 = system: NCI-H460
SF-268 = system: SF-268
K562 = system: K562
SNB-75 = system: SNB-75
UACC-257 = system: UACC-257
CCRF-CEM = system: CCRF-CEM
A498 = system: A498
SNB-19 = system: SNB-19
SF-295 = system: SF-295
HOP-92 = system: HOP-92
CAKI-1 = system: CAKI-1
XF498 = system: XF498
RPMI-8226 = system: RPMI-8226

O=C1C[C@@H]2C(COC(=O)c3ccccc3)N(OCc3ccccc3)C[C@@H]2O1 (stereo partly drawn)
GI50 (A549): > 100 µM (inactive)
GI50 (KM-20L2): > 100 µM (inactive)
GI50 (SN12C): > 100 µM (inactive)
GI50 (EKVX): > 100 µM (inactive)
GI50 (SNB-78): > 100 µM (inactive)
GI50 (TK-10): > 100 µM (inactive)
GI50 (M19-MEL): > 100 µM (inactive)
GI50 (SF-539): > 100 µM (inactive)
GI50 (HT-29): > 100 µM (inactive)
GI50 (SR): > 100 µM (inactive)
GI50 (MOLT-4): > 100 µM (inactive)
GI50 (HOP-18): > 100 µM (inactive)
GI50 (SK-MEL-28): > 100 µM (inactive)
GI50 (786-0): > 100 µM (inactive)
GI50 (OVCAR-4): > 100 µM (inactive)
GI50 (Malme-3M): > 100 µM (inactive)
GI50 (DMS-114): > 100 µM (inactive)
GI50 (COLO 205): > 100 µM (inactive)
GI50 (SK-MEL-2): > 100 µM (inactive)
GI50 (OVCAR-5): > 100 µM (inactive)
GI50 (DLD-1): > 100 µM (inactive)
GI50 (KM12): > 100 µM (inactive)
GI50 (OVCAR-8): > 100 µM (inactive)
GI50 (DMS-273): > 100 µM (inactive)
GI50 (M14): > 100 µM (inactive)
GI50 (HL-60): > 100 µM (inactive)
GI50 (SK-OV-3): > 100 µM (inactive)
GI50 (LXFL 529): > 100 µM (inactive)
GI50 (NCI-H226): > 100 µM (inactive)
GI50 (RXF 393): > 100 µM (inactive)
GI50 (ACHN): > 100 µM (inactive)
GI50 (NCI-H23): > 100 µM (inactive)
GI50 (SW-620): > 100 µM (inactive)
GI50 (HCT-116): > 100 µM (inactive)
GI50 (HCT-15): > 100 µM
GI50 (UO-31): > 100 µM (inactive)
GI50 (HOP-62): > 100 µM (inactive)
GI50 (UACC-62): > 100 µM (inactive)
GI50 (OVCAR-3): > 100 µM (inactive)
GI50 (IGROV-1): > 100 µM (inactive)
GI50 (HCC 2998): > 100 µM (inactive)
GI50 (SK-MEL-5): > 100 µM (inactive)
GI50 (LOX IMVI): > 100 µM (inactive)
GI50 (U-251): > 100 µM (inactive)
GI50 (NCI-H522): > 100 µM (inactive)
GI50 (RXF 631): > 100 µM (inactive)
GI50 (NCI-H460): > 100 µM (inactive)
GI50 (SF-268): > 100 µM (inactive)
GI50 (K562): > 100 µM (inactive)
GI50 (SNB-75): > 100 µM (inactive)
GI50 (UACC-257): > 100 µM (inactive)
GI50 (CCRF-CEM): > 100 µM (inactive)
GI50 (A498): > 100 µM (inactive)
GI50 (SNB-19): > 100 µM (inactive)

Cc1nc(NC(=S)NC(=O)c2ccc(Cl)c(Cl)c2)sc1C(=O)/C=C/c1ccccc1[N+](=O)[O-]
GI50 (A549): 25.3 µM (inactive)
GI50 (KM-20L2): 18.6 µM (inactive)
GI50 (SN12C): 21.6 µM (inactive)
GI50 (EKVX): 32.7 µM (inactive)
GI50 (SNB-78): 30.1 µM (inactive)
GI50 (TK-10): 36.1 µM (inactive)
GI50 (SF-295): 24.2 µM (inactive)
GI50 (M19-MEL): 26.8 µM (inactive)
GI50 (SF-539): 19 µM (inactive)
GI50 (HT-29): 21.3 µM (inactive)
GI50 (SR): 24.5 µM (inactive)
GI50 (MOLT-4): 19.8 µM (inactive)
GI50 (HOP-18): 12.4 µM (inactive)
GI50 (SK-MEL-28): 25.4 µM (inactive)
GI50 (786-0): 17.8 µM (inactive)
GI50 (OVCAR-4): 26.8 µM (inactive)
GI50 (Malme-3M): 18.5 µM (inactive)
GI50 (COLO 205): 18.4 µM (inactive)
GI50 (SK-MEL-2): 18.4 µM (inactive)
GI50 (OVCAR-5): > 10 µM (inactive)
GI50 (DLD-1): 48.9 µM (inactive)
GI50 (KM12): 18.7 µM (inactive)
GI50 (OVCAR-8): 28.1 µM (inactive)
GI50 (DMS-273): 20.9 µM (inactive)
GI50 (M14): 23.8 µM (inactive)
GI50 (HL-60): 19.1 µM (inactive)
GI50 (SK-OV-3): 15.6 µM (inactive)
GI50 (LXFL 529): 21.6 µM (inactive)
GI50 (RXF 393): 19.4 µM (inactive)
GI50 (HOP-92): 0.989 µM (active)
GI50 (ACHN): 24.4 µM (inactive)
GI50 (NCI-H23): 20.9 µM (inactive)
GI50 (SW-620): 20.2 µM (inactive)
GI50 (HCT-116): 20.7 µM (inactive)
GI50 (HCT-15): 20.4 µM
GI50 (UO-31): 20.8 µM (inactive)
GI50 (HOP-62): 21.2 µM (inactive)
GI50 (UACC-62): 10.9 µM (inactive)
GI50 (OVCAR-3): 22.1 µM (inactive)
GI50 (CAKI-1): 21.1 µM (inactive)
GI50 (IGROV-1): 24.5 µM (inactive)
GI50 (HCC 2998): 33.3 µM (inactive)
GI50 (LOX IMVI): 16.6 µM (inactive)
GI50 (U-251): 17.9 µM (inactive)
GI50 (NCI-H522): 16.9 µM (inactive)
GI50 (RXF 631): 24.1 µM (inactive)
GI50 (XF498): 20.6 µM (inactive)
GI50 (NCI-H460): 28.9 µM (inactive)
GI50 (SF-268): 39.4 µM (inactive)
GI50 (K562): 18.2 µM (inactive)
GI50 (UACC-257): 30.1 µM (inactive)
GI50 (CCRF-CEM): 22.4 µM (inactive)
GI50 (RPMI-8226): 24.2 µM (inactive)
GI50 (SNB-19): 21.1 µM (inactive)
